According to patent US9297798B2, “Therapeutic approach for polyglutamine degeneration” (The Chinese University of Hong Kong, priority 2013, dated 2016):

Experiments:
DsRedCAG100 RNA toxicity = assay: Pseudopupil assay in DsRedCAG100 Drosophila fed with peptide; format: in vivo; details: larvae fed with synthetic peptide at 100 μM until adulthood
Method: FIG. 3. Illustrates an in vivo reduction in expanded CAG-RNA toxicity by feeding Drosophila fly lines that overexpress DsRedCAG100 RNA with synthetic Nucleolin P3 peptide. DsRedCAG0 (A-C) and DsRedCAG100 (D-F) F1 larvae were fed with 100 μM of NCL P3 peptide until adulthood. Representative images of rhabdomeres (light-sensing organelles in eyes) taken from 1 day-old adult flies are shown. The average number of rhabdomeres per ommatidium (single eye unit of the adult flies) is shown at the bottom left hand corner of each image, and “+/−” represents s.e.m. from 3 independent sets of experiments. “NCL P3WT” represents wildtype NCL P3 peptide while “NCL P3MTc” represents mutant c NCL P3 peptide.
DsRedCAG RNA was expressed in Drosophila fly eyes. DsRedCAG0 (FIGS. 3A-C) and DsRedCAG100 (FIGS. 3D-F) using a pseudopupil assay (Chan W M, et al. 2011). F1 larvae were fed with 100 μM of NCL P3 peptides until adulthood. The overexpression caused the integrity of the internal eye structure to deteriorate, as indicated by the reduced number of rhabdomeres which are subcellular organelles responsible for phototransduction (FIG. 3D). DsRedCAG100 larvae were fed with synthetic P3MTc (FIG. 3E) or P3 (FIG. 3F) peptide at 100 μM.

[1] = system: pre-45s rRNA transcription in MJDCAG78-expressing HEK293 cells; assay: Real-time PCR of pre-45s rRNA in MJDCAG78-expressing HEK293 cells; format: cell-based; details: MJDCAG78-expressing HEK293 cells (FIG. 5D)
From the text: (§1) FIG. 5. Depicts the distinct stress responses induced by toxic expanded CAG-RNA and polyQ protein which can be differentiated by pre-rRNA and GRP78/BiP gene expression respectively in transgenic Drosophila and mammalian cell models. […] “dpe” denotes days post eclosion. The CAG repeat sequence of the DsRedCAG constructs is located in the 3′ UTR, thus expanded CAG RNA is produced but not expanded polyglutamine protein. Only RNA toxicity is observed in the DsRedCAG model. […] The MJDCAG constructs express both expanded CAG RNA and polyglutamine protein. […] The MJDCAA/G construct only generates polyQ protein toxicity because the continuity of the expanded CAG sequence is disrupted which disrupts RNA toxicity. (D) Real-time PCR analysis of the effects of RNA and protein toxicity peptidylic inhibitors on pre-45s rRNA and GRP78/BiP expression in an MJD disease cell model. HEK293 cells expressing a polynucleotide encoding MJDCAG78 reduced pre-45s rRNA transcription and induced GRP78/BiP expression. […] Cells expressing a polynucleotide encoding MJDCAG27 served as a control. “SCR” and “P3MT5” represent scrambled QBP1 and mutant P3 peptides respectively.

[2] = system: GRP78/BiP expression in MJDCAG78-expressing HEK293 cells; assay: Real-time PCR of GRP78/BiP in MJDCAG78-expressing HEK293 cells; format: cell-based; details: MJDCAG78-expressing HEK293 cells (FIG. 5D)
From the text: as §1

[3] = system: Drosophila polyQ disease model; assay: Pseudopupil assay in transgenic Drosophila polyQ model (RNA and protein toxicities); format: in vivo; details: third instar larvae incubated with peptides (100 μM each); pseudopupil assay on 0-3 day-old adult flies
Method: FIG. 7. (A) A co-treatment approach to target RNA and protein toxicities of polyQ diseases. (B) The combined effect of P3 and QBP1 peptides on suppressing neurodegeneration in a transgenic Drosophila polyQ model. Third instar larvae were incubated with corresponding peptides (100 μM each). Pseudopupil assay was performed on 0-3 day-old adult flies. The average number of rhabdomeres per ommatidium (single eye unit of the adult flies) is shown at the bottom left hand corner of each image. (C) Statistical analysis of (B). “WT” and “MT5” represent wildtype and mutant P3 peptides respectively. “SCR” denotes a scrambled sequence of QBP1. * represents P<0.05; ** represents P<0.01. Error bars represent standard deviation. Because both expanded CAG RNA and polyQ protein contribute to neurotoxicity, a therapeutic strategy that simultaneously targets these toxic species would be ideal for treatment. A similar combined therapeutic approach was recently reported in cancer treatment (Suzuki, et al., 2013), indicating its therapeutic potential of this strategy. We have performed a pilot study to simultaneously target both the RNA and protein toxicities using a well-studied protein toxicity peptide QBP1 (Nagai, et al., 2000) and P3, and has obtained satisfactory suppression (FIG. 7A).

polyQ protein toxicity = details: reported in literature, in vitro and in vivo; cited from earlier work
[4] = system: interaction between purified NCL and expanded CAG RNA (NCL: CAG78 RNA complex); assay: Competition assay: GST-NCL / CAG78 RNA pull-down on glutathione beads, bound RNA by RT-PCR; format: binding
From the text: Purified GST-nucleolin (GST-NCL) protein was purchased from Abnova (H00004691-P01), and the control GST protein was expressed and purified as previously described (Tsoi H, et al. 2011). The CAG78 (SEQ ID NO:18) and CUG78 (SEQ ID NOP:19) RNAs were synthesized from a pcDNA3.1-MJDCAG78 PCR product, using the MEGAscript kit (Ambion) with the following primer pairs: T7CAGF, 5′-TAA AC GACTCACTATAGGGAGAAGAAGCCTACTTTGAAAAA-3′ (SEQ ID NO:20) and CAGR, 5′-CTG TCC TGA TAG GTC CCG-3′ (SEQ ID NO:21) for CAG78 (SEQ ID NO:18); and T7CUGF, 5′-TAATACGACTCACTATAGGGAGAAGACACGACTATCCAGGGC-3′ (SEQ ID NO:22) and CUGR, 5′-CTT CGG ATG AAA CTT TTT-3′ (SEQ ID NO:23) for CUG78 (SEQ ID NO:19). To perform in vitro protein-RNA interaction, 50 ng of GST protein was first captured by glutathione Sepharose beads (GE Healthcare). The purified in vitro transcribed RNA (10 pmol) was allowed to bind with GST-coated glutathione Sepharose beads and the mixture was incubated at 4° C. overnight in a 500-μL reaction volume. Before elution, the protein-RNA mixture was washed three times with 1 mL of binding buffer [20 mM Hepes, pH 7.4, 150 mM NaCl, 5 mM MgCl2, 0.5% Nonidet P-40, 40 units RNAsin (Promega), and 1 mg/mL yeast tRNA (Sigma)]. Bound RNA was then extracted for RT-PCR as described in Tsoi H, et al. 2011.
These peptides were then tested for the ability to interact with expanded CAG RNA. […]

Row | Substance | suppression of DsRedCAG100 RNA toxicity (pseudopupil assay score) (DsRedCAG100 RNA toxicity) | pre-45s rRNA transcription [1] | GRP78/BiP induction [2] | suppression of neurodegeneration in Drosophila polyQ disease model [3] | suppression of polyQ protein toxicity (polyQ protein toxicity) | disruption of the interaction between purified NCL and expanded CAG RNA, dose dependence ([4]; P3 at 10, 50, 100, 250, and 750 μM with NCL and CAG78 RNA (FIG. 1D)) | interference with the interaction between purified NCL and expanded CAG RNA ([4]; Ten μM of each peptide with purified GST-NCL and CAG78 RNA (FIG. 1C))
1 | DGKSKGIAAIEAK (synthetic nucleolin RNA recognition motif (RRM), RRM domain of nucleolin, RRM-related sequence core amino acid sequence P3MT5/MTc) [Peptide P3MT5] | did not exert any rescuing effect | did not demonstrate such suppressive effects | did not demonstrate such suppressive effects | – | – | – | –
2 | S N W K W W P G I F D (SNWKWWPGIFD; synthetic polyQ-mediated toxicity inhibitor peptide QBP1) [reference compound] | – | restored pre-45s rRNA transcription | suppressed GRP78/BiP induction | substantial suppression | capable of suppressing polyQ protein toxicity both in vitro and in vivo | – | –
3 | VPQNQNGKSKGYAF (synthetic nucleolin RNA recognition motif (RRM), RRM domain of nucleolin, RRM-related sequence core amino acid sequence P5) [Peptide P5] | – | – | – | – | – | able to interfere with the interaction between purified NCL and expanded CAG RNA | able to interfere with the interaction between purified NCL and expanded CAG RNA
